Where a name gives a salt, the structure may show the parent alone. Read-outs that look alike come from different tables or passages of the source.
Legend:
Experiment in all cases: AK assay 384-well format, Prestwick library screening
[1] = tested on: K. pneumoniae; format: cell-based, Klebsiella pneumoniae; conditions: for fold induction at 50 µM: Klebsiella pneumoniae, 3 h
[2] = tested on: S. aureus strain USA300-0114; format: cell-based, Staphylococcus aureus; conditions: for fold induction at 50 µM: Staphylococcus aureus, USA300, 3 h
[3] = tested on: E. coli; format: cell-based, Escherichia coli; conditions: for fold induction at 50 µM: Escherichia coli, 3 h
[4] = tested on: P. aeruginosa; format: cell-based, Pseudomonas aeruginosa; conditions: for fold induction at 50 µM: Pseudomonas aeruginosa, 3 h
[5] = tested on: A. baumannii strain 98-37-09; format: cell-based, Acinetobacter baumannii; conditions: for fold induction at 50 µM: Acinetobacter baumannii, 983709, 3 h
[6] = tested on: E. cloacae; format: cell-based, Enterobacter cloacae; conditions: for fold induction at 50 µM: Enterobacter cloacae, 3 h
[7] = tested on: E. faecium; format: cell-based, Enterococcus faecium; conditions: for fold induction at 50 µM: Enterococcus faecium, 3 h
[8] = 50 μM final drug concentration, 384-well format, cutoff for positive-scoring molecules 3-fold increase

CC(=O)OCC(=O)[C@H]1CC[C@H]2[C@@H]3CC[C@H]4C[C@H](O)CC[C@]4(C)[C@H]3C(=O)C[C@]12C [Alfadolone acetate]
fold induction at 50 µM ([1]; planktonic K. pneumoniae, 50 μM final drug concentration, […], read-out: AK-based Prestwick library screening result, K. pneumoniae (fold increase in extracellular AK activity)): 0.9 | fold induction at 50 µM ([2]; planktonic S. aureus, 50 μM final drug concentration, […], read-out: AK-based Prestwick library screening result, S. aureus (fold increase in extracellular AK activity)): 1 | fold induction at 50 µM ([3]; planktonic E. coli, 50 μM final drug concentration, […], read-out: AK-based Prestwick library screening result, E. coli (fold increase in extracellular AK activity)): 1.2 | fold induction at 50 µM ([4]; planktonic P. aeruginosa, 50 μM final drug concentration, […], read-out: AK-based Prestwick library screening result, P. aeruginosa (fold increase in extracellular AK activity)): 1 | fold induction at 50 µM ([5]; planktonic A. baumannii, 50 μM final drug concentration, […], read-out: AK-based Prestwick library screening result, A. baumannii (fold increase in extracellular AK activity)): 1 | fold induction at 50 µM ([6]; planktonic E. cloacae, 50 μM final drug concentration, […], read-out: AK-based Prestwick library screening result, E. cloacae (fold increase in extracellular AK activity)): 1.4 | fold induction at 50 µM ([7]; planktonic E. faecium, 50 μM final drug concentration, […], read-out: AK-based Prestwick library screening result, E. faecium (fold increase in extracellular AK activity)): 1.1

CC(=O)Nc1c(I)c(C(=O)N[C@H]2C(O)O[C@H](CO)[C@@H](O)[C@@H]2O)c(I)c(N(C)C(C)=O)c1I (some centres unmarked) [Metrizamide]
fold induction at 50 µM ([1]; 50 μM final drug concentration, planktonic, cutoff for positive 3-fold increase, read-out: AK-based Prestwick Library Screening Results, K. pneumoniae (fold increase in extracellular AK activity)): 1 | fold induction at 50 µM ([2]; 50 μM final drug concentration, planktonic, cutoff for positive 3-fold increase, read-out: AK-based Prestwick Library Screening Results, S. aureus (fold increase in extracellular AK activity)): 1.2 | fold induction at 50 µM ([3]; 50 μM final drug concentration, planktonic, cutoff for positive 3-fold increase, read-out: AK-based Prestwick Library Screening Results, E. coli (fold increase in extracellular AK activity)): 1.2 | fold induction at 50 µM ([4]; 50 μM final drug concentration, planktonic, cutoff for positive 3-fold increase, read-out: AK-based Prestwick Library Screening Results, P. aeruginosa (fold increase in extracellular AK activity)): 1.2 | fold induction at 50 µM ([5]; 50 μM final drug concentration, planktonic, cutoff for positive 3-fold increase, read-out: AK-based Prestwick Library Screening Results, A. baumannii (fold increase in extracellular AK activity)): 1.3 | fold induction at 50 µM ([6]; 50 μM final drug concentration, planktonic, cutoff for positive 3-fold increase, read-out: AK-based Prestwick Library Screening Results, E. cloacae (fold increase in extracellular AK activity)): 1.3 | fold induction at 50 µM ([7]; 50 μM final drug concentration, planktonic, cutoff for positive 3-fold increase, read-out: AK-based Prestwick Library Screening Results, E. faecium (fold increase in extracellular AK activity)): 1

Clc1ccc(Cn2c(CN3CCCC3)nc3ccccc32)cc1 [Clemizole hydrochloride]
fold induction at 50 µM ([1]; planktonic K. pneumoniae, 50 μM final drug concentration, 384-well, cutoff for positive-scoring molecules 3-fold increase, read-out: AK-based Prestwick Library Screening Results: K. pneumoniae (increase in extracellular AK activity)): 1 | fold induction at 50 µM ([2]; planktonic S. aureus, 50 μM final drug concentration, 384-well, cutoff for positive-scoring molecules 3-fold increase, read-out: AK-based Prestwick Library Screening Results: S. aureus (increase in extracellular AK activity)): 1.6 | fold induction at 50 µM ([3]; planktonic E. coli, 50 μM final drug concentration, 384-well, cutoff for positive-scoring molecules 3-fold increase, read-out: AK-based Prestwick Library Screening Results: E. coli (increase in extracellular AK activity)): 1.2 | fold induction at 50 µM ([4]; planktonic P. aeruginosa, 50 μM final drug concentration, 384-well, cutoff for positive-scoring molecules 3-fold increase, read-out: AK-based Prestwick Library Screening Results: P. aeruginosa (increase in extracellular AK activity)): 1.2 | fold induction at 50 µM ([5]; planktonic A. baumannii, 50 μM final drug concentration, 384-well, cutoff for positive-scoring molecules 3-fold increase, read-out: AK-based Prestwick Library Screening Results: A. baumannii (increase in extracellular AK activity)): 1.6 | fold induction at 50 µM ([6]; planktonic E. cloacae, 50 μM final drug concentration, 384-well, cutoff for positive-scoring molecules 3-fold increase, read-out: AK-based Prestwick Library Screening Results: E. cloacae (increase in extracellular AK activity)): 1.4 | fold induction at 50 µM ([7]; planktonic E. faecium, 50 μM final drug concentration, 384-well, cutoff for positive-scoring molecules 3-fold increase, read-out: AK-based Prestwick Library Screening Results: E. faecium (increase in extracellular AK activity)): 1.2

Cc1c(Cl)cccc1Nc1ncccc1C(=O)O.NCCCC[C@H](N)C(=O)O [Clonixin Lysinate]
AK-based Prestwick library screening result, K. pneumoniae (fold increase in extracellular AK activity) [1]: 1.1 | AK-based Prestwick library screening result, S. aureus (fold increase in extracellular AK activity) [2]: 1.2 | AK-based Prestwick library screening result, E. coli (fold increase in extracellular AK activity) [3]: 1.0 | AK-based Prestwick library screening result, P. aeruginosa (fold increase in extracellular AK activity) [4]: 1.0 | AK-based Prestwick library screening result, A. baumannii (fold increase in extracellular AK activity) [5]: 1.4 | AK-based Prestwick library screening result, E. cloacae (fold increase in extracellular AK activity) [6]: 1.5 | AK-based Prestwick library screening result, E. faecium (fold increase in extracellular AK activity) [7]: 0.9

Cc1c(N(C)C)c(=O)n(-c2ccccc2)n1C [Amidopyrine]
AK-based Prestwick Library Screening Results, K. pneumoniae (increase in extracellular AK activity) [1, 8]: 0.5 | AK-based Prestwick Library Screening Results, S. aureus (increase in extracellular AK activity) [2, 8]: 0.4 | AK-based Prestwick Library Screening Results, E. coli (increase in extracellular AK activity) [3, 8]: 0.5 | AK-based Prestwick Library Screening Results, P. aeruginosa (increase in extracellular AK activity) [4, 8]: 0.4 | AK-based Prestwick Library Screening Results, A. baumannii (increase in extracellular AK activity) [5, 8]: 0.4 | AK-based Prestwick Library Screening Results, E. cloacae (increase in extracellular AK activity) [6, 8]: 0.4 | AK-based Prestwick Library Screening Results, E. faecium (increase in extracellular AK activity) [7, 8]: 0.9

Cn1cc[nH]c1=S [Methimazole]
fold induction at 50 µM ([1]; 50 μM final drug concentration, cutoff for positive-scoring molecules 3-fold increase, read-out: AK-based Prestwick Library Screening Results, K. pneumoniae (fold increase in extracellular AK activity)): 1 | fold induction at 50 µM ([2]; 50 μM final drug concentration, cutoff for positive-scoring molecules 3-fold increase, read-out: AK-based Prestwick Library Screening Results, S. aureus (fold increase in extracellular AK activity)): 1 | fold induction at 50 µM ([3]; 50 μM final drug concentration, cutoff for positive-scoring molecules 3-fold increase, read-out: AK-based Prestwick Library Screening Results, E. coli (fold increase in extracellular AK activity)): 1.2 | fold induction at 50 µM ([4]; 50 μM final drug concentration, cutoff for positive-scoring molecules 3-fold increase, read-out: AK-based Prestwick Library Screening Results, P. aeruginosa (fold increase in extracellular AK activity)): 1 | fold induction at 50 µM ([5]; 50 μM final drug concentration, cutoff for positive-scoring molecules 3-fold increase, read-out: AK-based Prestwick Library Screening Results, A. baumannii (fold increase in extracellular AK activity)): 1.4 | fold induction at 50 µM ([6]; 50 μM final drug concentration, cutoff for positive-scoring molecules 3-fold increase, read-out: AK-based Prestwick Library Screening Results, E. cloacae (fold increase in extracellular AK activity)): 27.1 | fold induction at 50 µM ([7]; 50 μM final drug concentration, cutoff for positive-scoring molecules 3-fold increase, read-out: AK-based Prestwick Library Screening Results, E. faecium (fold increase in extracellular AK activity)): 0.9

O=C(O)c1ccccc1Nc1cccc(C(F)(F)F)c1 [Flufenamic acid]
fold induction at 50 µM ([1]; planktonic K. pneumoniae, 50 μM final drug concentration, 384-well, […], read-out: AK-based Prestwick Library Screening Results: K. pneumoniae (increase in extracellular AK activity)): 1 | fold induction at 50 µM ([2]; planktonic S. aureus, 50 μM final drug concentration, 384-well, […], read-out: AK-based Prestwick Library Screening Results: S. aureus (increase in extracellular AK activity)): 0.5 | fold induction at 50 µM ([3]; planktonic E. coli, 50 μM final drug concentration, 384-well, […], read-out: AK-based Prestwick Library Screening Results: E. coli (increase in extracellular AK activity)): 1 | fold induction at 50 µM ([4]; planktonic P. aeruginosa, 50 μM final drug concentration, 384-well, […], read-out: AK-based Prestwick Library Screening Results: P. aeruginosa (increase in extracellular AK activity)): 1.1 | fold induction at 50 µM ([5]; planktonic A. baumannii, 50 μM final drug concentration, 384-well, […], read-out: AK-based Prestwick Library Screening Results: A. baumannii (increase in extracellular AK activity)): 1.3 | fold induction at 50 µM ([6]; planktonic E. cloacae, 50 μM final drug concentration, 384-well, […], read-out: AK-based Prestwick Library Screening Results: E. cloacae (increase in extracellular AK activity)): 1.8 | fold induction at 50 µM ([7]; planktonic E. faecium, 50 μM final drug concentration, 384-well, […], read-out: AK-based Prestwick Library Screening Results: E. faecium (increase in extracellular AK activity)): 1

CN1CCC(=C2c3ccccc3C=Cc3ccccc32)CC1 [Cyproheptadine hydrochloride]
fold induction at 50 µM ([1]; 50 μM final drug concentration, 384-well format, cutoff for positive-scoring molecules 3-fold increase, read-out: AK-based Prestwick Library Screening Results, K. pneumoniae (increase in extracellular AK activity)): 0.6 | fold induction at 50 µM ([2]; 50 μM final drug concentration, 384-well format, cutoff for positive-scoring molecules 3-fold increase, read-out: AK-based Prestwick Library Screening Results, S. aureus (increase in extracellular AK activity)): 0.6 | fold induction at 50 µM ([3]; 50 μM final drug concentration, 384-well format, cutoff for positive-scoring molecules 3-fold increase, read-out: AK-based Prestwick Library Screening Results, E. coli (increase in extracellular AK activity)): 0.9 | fold induction at 50 µM ([4]; 50 μM final drug concentration, 384-well format, cutoff for positive-scoring molecules 3-fold increase, read-out: AK-based Prestwick Library Screening Results, P. aeruginosa (increase in extracellular AK activity)): 0.9 | fold induction at 50 µM ([5]; 50 μM final drug concentration, 384-well format, cutoff for positive-scoring molecules 3-fold increase, read-out: AK-based Prestwick Library Screening Results, A. baumannii (increase in extracellular AK activity)): 0.9 | fold induction at 50 µM ([6]; 50 μM final drug concentration, 384-well format, cutoff for positive-scoring molecules 3-fold increase, read-out: AK-based Prestwick Library Screening Results, E. cloacae (increase in extracellular AK activity)): 0.9 | fold induction at 50 µM ([7]; 50 μM final drug concentration, 384-well format, cutoff for positive-scoring molecules 3-fold increase, read-out: AK-based Prestwick Library Screening Results, E. faecium (increase in extracellular AK activity)): 0.9
